The values below come from US20040224958A1, “Pyridopyrimidinone derivatives for treatment of neurodegenerative disease” (priority 2000, published 2004).

One test concerns the target cdk2/cyclinA (Homo sapiens, UniProt P24941). Description: Cyclin-Dependent Kinase Assay cdk2/cyclinA. The following applies: cdk2/A IC50.
The next test has as its target cdk2/cyclinE (Homo sapiens, UniProt P24941). In words: Cyclin-Dependent Kinase Assay cdk2/cyclinE. The following applies: cdk2/E IC50.
The target of another test is cdc2/cyclinB (Homo sapiens, UniProt P06493). In words: Cyclin-Dependent Kinase Assay cdc2/cyclinB.
The target in another test is cdk4/D (Homo sapiens, UniProt P11802). In words: Cyclin-Dependent Kinase 4 (cdk4) Assay. The format is biochemical. The following applies: read-out: cdk4/D IC50.
A further test concerns the target Cdk5/p25 (Homo sapiens, UniProt Q00535). In words: Cyclin-Dependent Kinase 5 High Throughput Screening (cdk5-HTS) Assay. The class given is biochemical. The settings on record: high throughput screen. A digest of the protocol: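 IC50 determined from 33P incorporation into GST-RbCOOH captured on glutathione plates and read by scintillation counting. Reaction: 1.0 μg/mL Cdk5/p25, 20 μM [γ33P]ATP, pH 7.4 Tris buffer with MgCl2 and DTT, 30 min at room temperature, stopped with EDTA.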

Sequence of cdk4/D (P11802 whole entry): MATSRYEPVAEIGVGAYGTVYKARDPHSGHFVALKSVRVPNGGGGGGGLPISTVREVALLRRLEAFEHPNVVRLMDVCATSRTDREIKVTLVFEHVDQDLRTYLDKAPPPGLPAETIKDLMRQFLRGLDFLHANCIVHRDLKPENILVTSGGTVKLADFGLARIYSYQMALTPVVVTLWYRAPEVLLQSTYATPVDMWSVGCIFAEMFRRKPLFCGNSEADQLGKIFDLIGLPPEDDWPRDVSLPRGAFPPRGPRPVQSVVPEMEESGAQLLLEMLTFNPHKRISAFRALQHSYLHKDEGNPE
Sequence of cdk4/D (P24385 whole entry, further chain): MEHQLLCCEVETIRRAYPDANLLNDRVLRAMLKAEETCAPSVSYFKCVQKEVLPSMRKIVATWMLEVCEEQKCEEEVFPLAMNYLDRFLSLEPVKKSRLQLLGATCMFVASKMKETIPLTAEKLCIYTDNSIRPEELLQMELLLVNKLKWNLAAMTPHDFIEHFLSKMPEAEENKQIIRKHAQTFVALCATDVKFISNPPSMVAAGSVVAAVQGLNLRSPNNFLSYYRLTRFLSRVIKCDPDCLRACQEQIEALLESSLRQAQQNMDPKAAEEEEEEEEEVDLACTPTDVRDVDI
Sequence of cdc2/cyclinB (P06493 whole entry): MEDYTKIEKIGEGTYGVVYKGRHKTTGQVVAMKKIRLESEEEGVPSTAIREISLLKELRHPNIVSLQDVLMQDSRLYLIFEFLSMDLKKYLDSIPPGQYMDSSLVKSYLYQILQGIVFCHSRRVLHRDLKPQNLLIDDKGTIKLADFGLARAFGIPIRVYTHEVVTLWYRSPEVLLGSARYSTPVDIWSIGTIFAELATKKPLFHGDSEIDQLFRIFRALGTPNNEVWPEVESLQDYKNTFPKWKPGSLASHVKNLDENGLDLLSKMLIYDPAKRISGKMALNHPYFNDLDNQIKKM
Sequence of cdc2/cyclinB (P14635 whole entry, further chain): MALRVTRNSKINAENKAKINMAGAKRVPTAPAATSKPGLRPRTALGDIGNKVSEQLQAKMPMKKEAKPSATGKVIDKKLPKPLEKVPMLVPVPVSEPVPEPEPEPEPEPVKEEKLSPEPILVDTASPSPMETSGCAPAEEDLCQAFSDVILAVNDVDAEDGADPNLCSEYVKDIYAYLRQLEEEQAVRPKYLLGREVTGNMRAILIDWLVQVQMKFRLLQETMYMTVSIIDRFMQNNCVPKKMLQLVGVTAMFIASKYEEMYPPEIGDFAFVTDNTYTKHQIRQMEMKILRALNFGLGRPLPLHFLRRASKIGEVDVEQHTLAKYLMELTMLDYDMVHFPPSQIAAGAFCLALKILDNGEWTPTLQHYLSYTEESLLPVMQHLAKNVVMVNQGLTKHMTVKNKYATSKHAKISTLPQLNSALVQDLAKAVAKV
Experimental for cdk2/cyclinA: Cyclin-Dependent Kinase Assays (cdk2/cyclinE, cdk2/cyclinA, cdc2/cyclinB)
All components except the ATP were added to the wells, and the plate was placed on a plate mixer for 2 minutes. The reaction was begun by addition of [^32P]ATP, and the plate was incubated at 25° C. for 15 minutes. The reaction was terminated by addition of 0.1 mL of 20% TCA. The plate was kept at 4° C. for at least 1 hour to allow the substrate to precipitate. The wells were then washed five times with 0.2 mL of 10% TCA and ^32p incorporation determined with a beta plate counter (Wallac Inc., Gaithersburg, Md.).

Consider `CCCn1c(=O)ccc2cnc(Nc3ccc(C)c(C)c3)nc21` [Example 318, 2-(3,4-Dimethyl-phenylamino)-8-propyl-8H-pyrido[2,3-d]pyrimidin-7-one], for which the IC50 against cdk2/cyclinA stood at 1280 nM; against cdk2/cyclinE it was 289 nM; at cdc2/cyclinB it was 216 nM; at cdk4/D, 430 nM; at Cdk5/p25 it was 69.1 nM.

With `CCCn1c(=O)ccc2cnc(Nc3cc(Cl)cc(Cl)c3)nc21` [Example 319, 2-(3,5-Dichloro-phenylamino)-8-propyl-8H-pyrido[2,3-d]pyrimidin-7-one], the IC50 on cdk2/cyclinA came out at 855 nM; on cdk2/cyclinE, 161 nM; against cdc2/cyclinB, 159 nM; at cdk4/D, 1550 nM; against Cdk5/p25, 106 nM.

As for `CCCn1c(=O)ccc2cnc(Nc3ccc([N+](=O)[O-])cc3F)nc21` [Example 320, 2-(2-Fluoro-4-nitro-phenylamino)-8-propyl-8H-pyrido[2,3-d]pyrimidin-7-one], the IC50 on cdk2/cyclinA stood at 2640 nM; at cdk2/cyclinE it was 451 nM; at cdc2/cyclinB it was 669 nM; at cdk4/D, 1650 nM; at Cdk5/p25, 375 nM.

In the case of `CCCn1c(=O)ccc2cnc(Nc3ccc(F)cc3F)nc21` [Example 321, 2-(2,4-Difluoro-phenylamino)-8-propyl-8H-pyrido[2,3-d]pyrimidin-7-one], the IC50 against cdk2/cyclinA is 3160 nM; at cdk2/cyclinE, 1110 nM; on cdc2/cyclinB it was 1240 nM; at cdk4/D it was 3640 nM; on Cdk5/p25, 648 nM.

With `CCCn1c(=O)ccc2cnc(Nc3ccc(C#N)cc3)nc21` [Example 322, 4-(7-Oxo-8-propyl-7,8-dihydro-pyrido[2,3-d]pyrimidin-2-ylamino)-benzonitrile], the IC50 is 554 nM against cdk2/cyclinA; 300 nM on cdk2/cyclinE; 597 nM on cdc2/cyclinB; 637 nM on cdk4/D; 228 nM against Cdk5/p25.

For `CCCn1c(=O)ccc2cnc(Nc3ccc4[nH]ccc4c3)nc21` [Example 323, 2-(1H-Indol-5-ylamino)-8-propyl-8H-pyrido[2,3-d]pyrimidin-7-one], the IC50 against cdk2/cyclinA stood at 250 nM; at cdk2/cyclinE it was 86.5 nM; against cdc2/cyclinB, 82 nM; on cdk4/D, 71.5 nM; at Cdk5/p25, 53 nM.

With `CCCn1c(=O)ccc2cnc(Nc3ccc4[nH]ncc4c3)nc21` [Example 324, 2-(1H-Indazol-5-ylamino)-8-propyl-8H-pyrido[2,3-d]pyrimidin-7-one], the IC50 was found to be 145 nM at cdk2/cyclinA; 53 nM at cdk2/cyclinE; 82.5 nM against cdc2/cyclinB; 214 nM on cdk4/D; 32 nM on Cdk5/p25.

With `CCCn1c(=O)ccc2cnc(Nc3ccc4[nH]nnc4c3)nc21` [Example 325, 2-(1H-Benzotriazol-5-ylamino)-8-propyl-8H-pyrido[2,3-d]pyrimidin-7-one], the IC50 amounted to 126 nM at cdk2/cyclinA; 38.7 nM against cdk2/cyclinE; 1440 nM at cdc2/cyclinB; 165 nM on cdk4/D; 39.5 nM at Cdk5/p25.

In the case of `CCCn1c(=O)ccc2cnc(Nc3ccc(O)c(Cl)c3)nc21` [Example 327, 2-(3-Chloro-4-hydroxy-phenylamino)-8-propyl-8H-pyrido[2,3-d]pyrimidin-7-one], the IC50 at cdk2/cyclinA was 67 nM; on cdk2/cyclinE, 25 nM; on cdc2/cyclinB it was 53 nM; at cdk4/D, 189 nM; at Cdk5/p25, 31 nM.

Take `CCCn1c(=O)ccc2cnc(Nc3cc(Cl)c(O)c(Cl)c3)nc21` [Example 328, 2-(3,5-Dichloro-4-hydroxy-phenylamino)-8-propyl-8H-pyrido[2,3-d]pyrimidin-7-one]: the IC50 worked out at 75 nM on cdk2/cyclinA; 35.3 nM on cdk2/cyclinE; 80 nM against cdc2/cyclinB; 690 nM on cdk4/D; 92.5 nM against Cdk5/p25.

Regarding `CCCn1c(=O)ccc2cnc(Nc3ccc(OC)cc3)nc21` [Example 329, 2-(4-Methoxy-phenylamino)-8-propyl-8H-pyrido[2,3-d]pyrimidin-^7-one], the IC50 came out at 425 nM against cdk2/cyclinA; 275 nM on cdk2/cyclinE; 320 nM at cdc2/cyclinB; 315 nM on cdk4/D; 160 nM against Cdk5/p25.

On to `CCCn1c(=O)ccc2cnc(Nc3cccc([N+](=O)[O-])c3)nc21` [Example 330, 2-(3-Nitro-phenylamino)-8-propyl-8H-pyrido[2,3-d]pyrimidin-7-one], for which the IC50 against cdk2/cyclinA is 1150 nM; on cdk2/cyclinE, 370 nM; against cdc2/cyclinB it was 940 nM; on cdk4/D, 2100 nM; against Cdk5/p25 it was 435 nM.

Regarding `CCCn1c(=O)ccc2cnc(Nc3ccc(OC)c(OC)c3)nc21` [Example 331, 2-(3,4-Dimethoxy-phenylamino)-8-propyl-8H-pyrido[2,3-d]pyrimidin-7-one], the IC50 came out at 875 nM on cdk2/cyclinA; 950 nM at cdk2/cyclinE; 415 nM against cdc2/cyclinB; 2000 nM at cdk4/D; 160 nM against Cdk5/p25.

For the compound `CCCn1c(=O)ccc2cnc(Nc3ccc(F)cc3)nc21` [Example 332, 2-(4-Fluoro-phenylamino)-8-propyl-8H-pyrido[2,3-d]pyrimidin-7-one], the IC50 at cdk2/cyclinA stood at 1310 nM; against cdk2/cyclinE it was 417 nM; at cdc2/cyclinB, 1050 nM; at cdk4/D, 2050 nM; against Cdk5/p25, 590 nM.

For the compound `CCCn1c(=O)ccc2cnc(Nc3cc([N+](=O)[O-])ccc3F)nc21` [Example 333, 2-(2-Fluoro-5-nitro-phenylamino)-8-propyl-8H-pyrido[2,3-d]pyrimidin-7-one], the IC50 at cdk2/cyclinA stood at 1700 nM; on cdk2/cyclinE, 340 nM; on cdc2/cyclinB, 1300 nM; on cdk4/D it was 670 nM; at Cdk5/p25, 260 nM.

In the case of `CCCn1c(=O)ccc2cnc(Nc3ccc(F)c(C(F)(F)F)c3)nc21` [Example 335, 2-(4-Fluoro-3-trifluoromethyl-phenylamino)-8-propyl-8H-pyrido[2,3-d]pyrimidin-7-one], the IC50 was 1100 nM at cdk2/cyclinA; 160 nM against cdk2/cyclinE; 250 nM against cdc2/cyclinB; 1600 nM on cdk4/D; 340 nM against Cdk5/p25.

`CCCn1c(=O)ccc2cnc(Nc3ccc(OC)c(O)c3)nc21` [Example 336, 2-(3-Hydroxy-4-methoxy-phenylamino)-8-propyl-8H-pyrido[2,3-d]pyrimidin-7-one]: the IC50 stood at 1700 nM against cdk2/cyclinA; 120 nM at cdk2/cyclinE; 320 nM against cdc2/cyclinB; 2400 nM on cdk4/D; 74 nM on Cdk5/p25.

As for `CCCn1c(=O)ccc2cnc(Nc3ccc(F)c(C)c3)nc21` [Example 337, 2-(4-Fluoro-3-methyl-phenylamino)-8-propyl-8H-pyrido[2,3-d]pyrimidin-7-one], the IC50 against cdk2/cyclinA is 100 nM; on cdk2/cyclinE, 25 nM; on cdc2/cyclinB it was 150 nM; on cdk4/D, 430 nM; on Cdk5/p25, 150 nM.

Consider `CCCn1c(=O)ccc2cnc(Nc3ccc(OC)c(F)c3)nc21` [Example 338, 2-(3-Fluoro-4-methoxy-phenylamino)-8-propyl-8H-pyrido[2,3-d]pyrimidin-7-one], for which the IC50 against cdk2/cyclinA was found to be 340 nM; against cdk2/cyclinE, 170 nM; on cdc2/cyclinB it was 570 nM; at cdk4/D it was 270 nM; against Cdk5/p25, 48 nM.

`CCCn1c(=O)ccc2cnc(Nc3ccc(C#N)c(NC(C)=O)c3)nc21` [Example 340, N-[2-Cyano-5-(7-oxo-8-propyl-7,8-dihydro-pyrido[2,3-d]pyrimidin-2-ylamino)-phenyl]-acetamide]: the IC50 on cdk2/cyclinA was 960 nM; against cdk2/cyclinE, 350 nM; on cdc2/cyclinB, 1300 nM; on cdk4/D, 310 nM; at Cdk5/p25 it was 170 nM.

Regarding `CCCn1c(=O)ccc2cnc(Nc3ccc(Br)c(Cl)c3)nc21` [Example 341, 2-(4-Bromo-3-chloro-phenylamino)-8-propyl-8H-pyrido[2,3-d]pyrimidin-7-one], the IC50 at cdk2/cyclinA was 890 nM; against cdk2/cyclinE it was 280 nM; against cdc2/cyclinB it was 520 nM; on cdk4/D it was 420 nM; on Cdk5/p25, 92 nM.

With `CCCn1c(=O)ccc2cnc(Nc3ccc(I)c(Cl)c3)nc21` [Example 344, 2-(3-Chloro-4-iodo-phenylamino)-8-propyl-8H-pyrido[2,3-d]pyrimidin-7-one], the IC50 at cdk2/cyclinA was found to be 990 nM; on cdk2/cyclinE, 470 nM; at cdc2/cyclinB, 360 nM; at cdk4/D, 370 nM; at Cdk5/p25 it was 46 nM.

Turning to `CCCn1c(=O)ccc2cnc(Nc3ccc(N(C)C(C)=O)cc3)nc21` [Example 345, N-Methyl-N-[4-(7-oxo-8-propyl-7,8-dihydro-pyrido[2,3-d]pyrimidin-2-ylamino)-phenyl]-acetamide], the IC50 was determined as 830 nM at cdk2/cyclinA; 430 nM on cdk2/cyclinE; 590 nM on cdc2/cyclinB; 160 nM on cdk4/D; 160 nM against Cdk5/p25.

With `CCCn1c(=O)ccc2cnc(Nc3cc(C)cc(C)c3)nc21` [Example 346, 2-(3,5-Dimethyl-phenylamino)-8-propyl-8H-pyrido[2,3-d]pyrimidin-7-one], the IC50 against cdk2/cyclinA came out at 450 nM; at cdk2/cyclinE, 260 nM; against cdc2/cyclinB, 61 nM; at cdk4/D, 310 nM; at Cdk5/p25 it was 29 nM.
